Laboratory results from patent US8906897B2, “Antimicrobial agents based on hemin derivatives” (Obschestvo S Ogranichennoi Otvetstvennostiyu …, priority 2009, dated 2014).

Legend:
[1] = test system: Staphylococcus aureus 209P; assay: Antibacterial activity (MIC/MBC), serial dilutions in liquid MH medium; format: cell-based; conditions: for MIC: 20 h, MH medium
Experimental: (§1) The antibacterial activity of compounds was determined against Bacillus subtilis BKM B-501, Staphylococcus aureus 209P, Enterococcus faecalis BKM B-871, and Micrococcus luteus BKM Ac-2230 strains (acquired from the All-Russia Collection of Microorganisms at the Institute for Biochemistry and Physiology of Microorganisms, Russian Academy of Sciences). The main parameters characterizing the antibacterial activity are the minimal inhibitory concentration (MIC) and minimal bactericidal concentration (MBC). […] MBC is the least concentration that causes the death of all cells.
(§2) MIC was quantified by inhibiting culture growth in a liquid medium with serial dilutions of compounds using a modified procedure [Amsterdam, D., “Susceptibility Testing of Antimicrobials in Liquid Media,” in Antibiotics in Laboratory Medicine, Ed. by Lorian, V., 4th ed., Baltimore: Williams and Wilkins, 1996, pp. 52-111].
(§3) Bacteria were cultured and tests were carried out on an MH liquid medium (Mueller-Hinton medium: a dry extract of beef broth, 4 g/L; starch, 1.5 g/L; casein hydrolyzate, 17.5 g/L; Sigma-Fluka Catalog No. 70192) at 37° C., 100% humidity, and under stirring. Cultures (4th through 7th receeding post-thawing) in the exponential growth phase were used for tests.
(§4) Therefore, a correction for absorption was applied in estimating the optical density of bacterial suspensions for each compound with account for its concentration in the well.
(§5) The protocol for experimental antibacterial activity determination for tested compounds was as follows. A cryovial with the test strain culture (Bacillus subtilis BKIVI B-501, Staphylococcus aureus 209P, Enterococcus faecalis BKM B-871, or Micrococcus luteus BKIVI Ac-2230) in a medium with 7% DMSO stored in liquid nitrogen, was rapidly defrosted, and 1.5 mL of the fresh MH medium was inoculated with 100 μL of the cell suspension. Cells were grown for one day at 37° C. and stirred on an orbital shaker at 150 rpm. The morphologic features of the strain and the absence of contamination with foreign bacteria were verified by: (a) inoculation on an agarized (15 g/L agar) MH medium and observation of the shape and color of the grown colonies and (b) examination of characteristic morphologic features under a microscope (Mikmed-2, LOMO, Russia) equipped with a 40× objective lens. Further bacteria were cultured in 1 mL of the liquid MH medium at 37° C. under stirring. The cells were reseeded every day. Cell cultures were used in tests starting with 3rd reseeding and ending with 6th one.
(§6) For testing, 5 μL of a bacterial suspension in the stationary growth phase was transferred to 1 mL of a sterile MH medium and incubated until the exponential growth phase was attained (3 to 5 h, 37° C., stirring at 150 rpm). To estimate the microorganisms concentration, the optical density (A) of the resulting bacterial culture was measured at a wavelength of 595 nm. The value of A=0.2 measured from a […] portion of the cell suspension in a 96-well plate, with a correction for the medium absorption applied, was set to correspond to 4×10^8 cells/mL for both strains used. Taking into account the cell concentration measurements, the suspension was diluted with the MH medium to a concentration of from 5×10^4 to 1×10^5 cells/mL and transferred to a sterile 96-well plate in an amount of 100 μL, per well. Then, the cells were added with tested compounds and twofold serial dilutions of these compounds in plate's wells were made.
(§7) The controls used were: 100 μL of an additive-free bacterial culture (four wells); a bacterial culture added with 1% DMSO or water in the same volume as in the wells with the maximal concentration of the tested compounds (four wells); and 100 μL of the sterile MH medium without bacteria and without tested compounds for control of occasional contamination in the plate (four wells).

[2] = test system: Bacillus subtilis BKM B-501; assay: as above; format: cell-based; conditions: for MIC: 20 h, MH medium
Experimental: as §1, §2, §3, §4, §5, §6, §7

[3] = test system: Enterococcus faecalis BKM B-871; assay: as above; format: cell-based; conditions: for MIC: 20 h, MH medium
Experimental: as §1, §2, §3, §4, §5, §6, §7

[4] = test system: Micrococcus luteus BKM Ac-2230; assay: as above; format: cell-based; conditions: for MIC: 20 h, MH medium
Experimental: as §1, §2, §3, §4, §5, §6, §7

[5] = test system: human leukocytes; assay: Cytotoxic activity against human leukocytes; conditions: for Death of leukocytes in the presence of 1 mM of compound / concentration at which a weak toxic effect on leukocytes appears: 3 h incubation; for toxic effect on human blood leukocytes (in words): concentrations of up to 1 mM, 3 h
Experimental: Total leukocytes were isolated from human blood by unforced sedimentation using freshly collected venous blood from a healthy donor.
Blood (10 mL) added with 10 units/mL heparin was exposed for 2.5 h in the dark at a temperature of 15 to 18° C. A light-colored liquid supernatant (4 mL) was collected over the layer of sedimenting erythrocytes, washed three times with balanced Hanks's salt solution, and resuspended in the RPMI-1640 medium (added with 8% fetal bovine serum, 2 mM L-glutamine, and 10 mM HEPES; hereinafter, the complete medium).
The concentrations of leukocytes and erythrocytes in the suspension were determined by counts in Goryachev's chamber, after which the suspension was adjusted to a leukocyte concentration of (1.0±0.1)×10^6 cells/mL with the complete medium.
To determine the cytotoxicity of the tested compounds for human leukocytes, the cell suspension was transferred to wells of sterile 96-well plates, tested compounds were added with serial twofold dilutions (the range of tested concentrations was from 3.2 to 100 μM for GrD and gramicidin S; from 8 to 500 μM for compound XIII; and from 8 to 1000 μM for compounds V, VI, VII, VIII, IX, X, XI, XIV, XV, XIX, and Hem), and the mixture was carefully stirred. The experiment was performed in two replicas.
As controls served cells added with an equivalent amount of the solvent in which tested compounds were prepared, namely: water for compounds VII and X; an aqueous solution of DMSO for compounds V, VI, VIII, and IX; and DMSO for GrD, gramicidin S, Hem, XI, XIII, XIV, XV, and XIX. An additional control was an additive-free leukocyte suspension.
Cells were incubated with tested compounds for 3 h (37° C., 5% CO2, 100% humidity). Leukocyte death values were quantified using fluorescence microscopy. Staining with propidium iodide (it permeates only into dead cells nuclei) and Hoechst 33342 (it stains all nuclei) was used to recognize dead and living cells. Cells were incubated for 15 min in plates with propidium iodide and Hoechst 33342 (37° C., 5% CO2), and then the plates were placed under a microscope for analysis.
The dead cell fraction was derived from the fluorescence images of cells obtained in the blue (Hoechst 33342) and red (propidium iodide) spectral ranges using an Axio Observer (Zeiss, Germany) fluorescence microscope equipped with a 10× objective lens (Plan-Neofluar 10×/0.3). The following sets of fluorescence filters were used. For propidium iodide: a 530/585-nm bandpass excitation filter, a 600-nm cut-off dichroic minor, and a 615-nm longpass barrier filter for analysis. For Hoechst 33342: a 359/372-nm bandpass excitation filter, a 395-nm cut-off dichroic mirror, and a 397-nm longpass barrier filter for analysis.
A digital camera recorded three types of cell images: (a) an image in the transmitted white light; (b) a blue fluorescence image obtained with UV excitation, and (c) a red fluorescence image obtained with green light excitation. At least four fields of view were photographed per well in various regions of a well.

[6] = Solubility of tested agents (water / DMSO); conditions: water or DMSO
[7] = test system: Candida albicans No. 927; assay: Antifungal activity, culture growth with pH indicator; format: cell-based; set-up: key to Test culture growth at various dilutions of the agent: (−) No growth; the indicator is blue; (±) Weak growth; the indicator is yellow, but the precipitate of grown cells looks as a diffuse spot; (+) Strong growth; the indicator is yellow, and the cell precipitate looks as a compact spot
Experimental: The subjects of action were Cryptococcus neoformans No. 3465 museum strain cells and Candida albicans No. 927 museum strain cells grown for one day on a glucose-peptone-yeast medium at 32° C. The reference compounds were the following antimycotics: pimafucin, amphotericin, and fluconazole.
Experiments were carried out on round-bottomed 96-well plates (Lenmedpolimer) in two replicas. To the first column (0), added was 10 μL of the stock solution of a water-soluble agent with concentrations of 10^−2 to 10^−3 mol/L; to the second column, added was also the same 10 μL plus 10 μL of the solvent corresponding to the given compound, suspended, 10 μL was transferred to the next well, and so on to the 8th well of the row. Stock solutions of water-insoluble compounds of general formula (I) (compounds V, VIII, XII, XIII, XIV, and hemin) were prepared in DMSO and were diluted with DMSO and the medium. DMSO concentrations in the reaction mixture in a well were ≦5%.
Then, to every well added was 190 μL of a Cr. neoformans cell culture suspension in a synthetic nutritional medium (so that the final cell concentration was approximately 10^3 CFU/mL), this medium containing Bromocresol Blue as a pH-indicator (pH: 5.5; indicator color: blue). As pH reduced to 4.5, the indicator in the culture changed its color to yellow, thereby indicating fungal cell growth. The synthetic medium comprised the following components: salts, amino acids, microelements, vitamins, an antibiotic, and glucose (30 components altogether) [Yarrow, D., “Methods for the Isolation, Maintenance and Identification of Yeasts,” in: The Yeasts. A Taxonomic Study, Ed. by Kurtsman, C. P, and Fell, M., Elsevier, 1998, pp. 77-100]. After being inoculated with a Cr. neoformans cell suspension, the plate was incubated at 32° C. for 1 h with stirring, then transferred to a stationary thermostat and incubated for two and five days at 27° C. After being inoculated with a C. albicans cell suspension, the plates were incubated for 1 h at 32° C. with stirring, then transferred to a stationary thermostat and incubated for one and four days at 27° C.

| Compound | MBC [1] | MIC [1] [µM] | MBC [2] | MIC [2] [µM] | MBC [3] | MIC [3] [µM] | MBC [4] [µM] | MIC [4] [µM] | Death of leukocytes in the presence of 1 mM of compound [5] [%] | toxic effect on human blood leukocytes (in words) [5] | concentration at which a weak toxic effect on leukocytes appears [5] [µM] | solubility (in words) [6] | Test culture growth at various dilutions of the agent ([7]; dilution 0: 1 × 10^−4 M) | Test culture growth at various dilutions of the agent ([7]; dilution : 2 of 1 × 10^−4 M) | Test culture growth at various dilutions of the agent ([7]; dilution : 4 of 1 × 10^−4 M) | Test culture growth at various dilutions of the agent ([7]; dilution : 8 of 1 × 10^−4 M) | Test culture growth at various dilutions of the agent ([7]; dilution : 16 of 1 × 10^−4 M) | Test culture growth at various dilutions of the agent ([7]; dilution : 32 of 1 × 10^−4 M) | Test culture growth at various dilutions of the agent ([7]; dilution : 64 of 1 × 10^−4 M) |
| --- | --- | --- | --- | --- | --- | --- | --- | --- | --- | --- | --- | --- | --- | --- | --- | --- | --- | --- | --- |
| 6(7)-Mono(Arg-Gly-Asp)-Protohemin IX [Compound XI] | Not reached | 12.5 | 25 ± 7 µM | 12.5 ± 4 | Not reached | 100 | 200 | 50 | 8.6 ± 0.4 | fully due to the toxic effect of the solvent |  |  |  |  |  |  |  |  |  |
| C=CC1=C(C)c2cc3[n-]c(cc4nc(cc5[n-]c(cc1n2)c(C)c5CCC(=O)NCCc1c[nH]cn1)C(CCC(=O)NCCc1c[nH]cn1)=C4C)c(C)c3C=C.[Cl-].[Fe+3] [Compound XIX, 6,7-bis-Histaminyl-Protohemin IX] | Not reached | 200 | Not reached | 100 ± 25 | Not reached | 200 | 25 | 25 | 13 ± 1 |  | ~1000 |  |  |  |  |  |  |  |  |
| C=CC1=C(C)c2cc3[n-]c(cc4nc(cc5[n-]c(cc1n2)c(C)c5CCC(=O)NCC(=O)OC)C(CCC(=O)NCC(=O)OC)=C4C)c(C)c3C=C.[Cl-].[Fe+3] [Compound XV, 6,7-Bis(N^α-Glycyl Methyl Ester)-Protohemin IX] |  |  | 25 ± 7 µM | 12.5 ± 4 |  |  | 6.5 | 1.6 | 13 ± 1 |  | ~1000 | DMSO-soluble |  |  |  |  |  |  |  |
| C=CC1=C(C)c2cc3[n-]c(cc4nc(cc5[n-]c(cc1n2)c(C)c5CCC(=O)NC(CO)CO)C(CCC(=O)NC(CO)CO)=C4C)c(C)c3C=C.[Cl-].[Fe+3] [Compound XVI, Protohemin IX 6,7-bis-N-(1,3-Dihydroxypropan-2-yl)amide] | >200 µM | >200 | >200 µM | >200 | >200 µM | >200 | >200 | >200 |  |  |  |  |  |  |  |  |  |  |  |
| C=CC1=C(C)c2cc3[n-]c(cc4nc(cc5[n-]c(cc1n2)c(C)c5CCC(=O)NCC(O)CO)C(CCC(=O)NCC(O)CO)=C4C)c(C)c3C=C.[Cl-].[Fe+3] (stereo not shown) [Compound XVII, Protohemin IX 6,7-bis-N-(2,3-Dihydroxypropyl)amide] | >200 µM | >200 | >200 µM | >200 | >200 µM | >200 | >200 | >200 |  |  |  |  |  |  |  |  |  |  |  |
| C=CC1=C(C)c2cc3[n-]c(cc4nc(cc5[n-]c(cc1n2)c(C)c5CCC(=O)NCCC(=O)NCCc1c[nH]cn1)C(CCC(=O)NCCC(=O)NCCc1c[nH]cn1)=C4C)c(C)c3C=C.[Cl-].[Fe+3] [IX] | 400 µM | 100 | 100 ± 25 µM | 50 ± 13 | >400^3 μM | 200 | 25 |  | 3.1 ± 0.3 | did not cause the death |  |  |  |  |  |  |  |  |  |
| Protohemin IX 6(7)-Mono[Cyclo(Orn-Leu-D-Phe-Pro-Val)2])amide [Compound XIII] |  |  |  |  |  |  |  |  | 14 ± 2 |  |  | water-insoluble | ± | ± | + | + | + | + | + |
